Assay results taken from ChEMBL document CHEMBL6182830, “Hepatocyte targeting via the asialoglycoprotein receptor” (RSC Med Chem, 2025).

Assay: Binding affinity to human ASGR assessed as dissociation constant by SPR analysis

| Kd [µM] | Compound |
| --- | --- |
| 40.4 | CC(=O)N[C@@H]1[C@@H](O)[C@@H](O)[C@@H](CO)O[C@H]1O |
| 880 | CO[C@@H]1O[C@H](CO)[C@H](O)[C@H](O)[C@H]1O |
| 1.8 | O=C(N[C@H]1[C@H]2OC[C@](CO)(O2)[C@H](O)[C@@H]1O)C(F)(F)F |
| 7.2 | CC(=O)N[C@H]1[C@H]2OC[C@](CO)(O2)[C@H](O)[C@@H]1O |
| 14.8 | C[C@@H]1O[C@H](CO)[C@H](O)[C@H](O)[C@H]1NC(=O)C(F)(F)F |
| 41 | CC(=O)N[C@@H]1[C@@H](O)[C@@H](O)[C@@H](CO)O[C@H]1C |
| 1.2 | COc1cccc(-n2cc(C[C@H]3O[C@H](OCC(O)CNCc4ccccc4)[C@H](NC(=O)C(F)(F)F)[C@@H](O)[C@H]3O)nn2)c1 (stereo partly drawn) |
| 1.6 | C=CCO[C@H]1O[C@H](CN=[N+]=[N-])[C@H](O)[C@H](O)[C@H]1NC(C)=O |
